# Paper PMC6988596 (Chemical Science, 2019)
# Target: LeuS (Escherichia coli, UniProt P07813)
# Test: HAMA hydroxamate LC-MS/MS competition assay
# Assay type: biochemical
# Conditions: amino acid mixture
smiles,measurement,value
CC(C)C[C@H](N)C(=O)O [L-Leu],HAMA hydroxamate LC-MS/MS competition assay,all three specificities were correctly identified and almost no side-activities detected
